Assay: xn = mol fraction of the nth substance listed

CCCC[N+](CCCC)(CCCC)CCCC.[Br-] + ClC(Cl)(Cl)Cl
303.15 K, 101 kPa
Conditions	viscosity [mPa·s]
x1 = 0.0245	2.46
x1 = 0.026	2.59
x1 = 0.0348	3.22
x1 = 0.0608	7.11
x1 = 0.0946	14.33
x1 = 0.1162	24.57
x1 = 0.1446	36.49
x1 = 0.1666	56.17
x1 = 0.1764	63.7
x1 = 0.2004	101.7
x1 = 0.2171	141.8
x1 = 0.2631	307.1
x1 = 0.3449	1248

NC(N)=S + c1ccncc1
298.15 K, 101 kPa
Conditions	viscosity [mPa·s]
x1 = 0.0572	1.251
x1 = 0.13	2.019

Cc1cccc(N)c1 + Cc1ccccc1
303.15 K, 101.33 kPa
Conditions	viscosity [mPa·s]
x1 = 0.168	0.61
x1 = 0.422	0.8
x1 = 0.619	1.05
x1 = 0.801	1.53

CN1CCCN2CCCN=C12 + CC(=O)O
100 kPa, x1 = 0.1125
Conditions	viscosity [mPa·s]
294.45 K	12.9
298.17 K	11.3
308.1 K	8.1
323.06 K	5.4

C=C1CCC2CC1C2(C)C (stereo not drawn) + Cc1cc(C)cc(C)c1
viscosity [mPa·s], 101 kPa
Conditions	x2 = 0.2198	x2 = 0.3257	x2 = 0.429	x2 = 0.5299	x2 = 0.6283	x2 = 0.7245	x2 = 0.8185	x2 = 0.9103
303.15 K	1.254	1.108	0.981	0.871	0.799	0.743	0.696	0.661
308.5 K	1.167	1.032	0.915	0.819	0.749	0.695	0.653	0.622
313.15 K	1.082	0.959	0.854	0.768	0.698	0.645	0.606	0.576

O=C(O)CC(O)C(=O)O (stereo not drawn) + C[N+](C)(C)CCO.[Cl-]
Conditions	viscosity [mPa·s]
293.15 K, 101 kPa, x1 = 0.5	24490
293.2 K, 101.3 kPa, x2 = 0.602	8896
293.2 K, 101.3 kPa, x2 = 0.666	3341
298 K, 101.3 kPa, x2 = 0.5	2082
298.15 K, 101 kPa, x1 = 0.5	22090
298.15 K, 101.33 kPa, x1 = 0.7	530.2
303.15 K, 101 kPa, x1 = 0.5	13390
303.2 K, 101.3 kPa, x2 = 0.602	5432
303.2 K, 101.3 kPa, x2 = 0.666	2810
308.15 K, 101 kPa, x1 = 0.5	8995
313.15 K, 101 kPa, x1 = 0.5	5859
313.2 K, 101.3 kPa, x2 = 0.505	6421
313.2 K, 101.3 kPa, x2 = 0.602	2827
313.2 K, 101.3 kPa, x2 = 0.666	1676
318.15 K, 101 kPa, x1 = 0.5	4121
323 K, 101.3 kPa, x2 = 0.5	610
323.15 K, 101 kPa, x1 = 0.5	2924

CCCC[N+](CCCC)(CCCC)CCCC.[Br-] + OCCOCCOCCO
100 kPa, x1 = 0.2
Conditions	viscosity [mPa·s]
303.15 K	279.6
313.15 K	176.9
323.15 K	101.6

C1CCC(C2CCCCC2)CC1 + C1CC[C@H]2CCCC[C@@H]2C1
viscosity [mPa·s], 102 kPa
Conditions	x2 = 0.1185	x2 = 0.2312	x2 = 0.3405	x2 = 0.4451	x2 = 0.546	x2 = 0.6433	x2 = 0.7374	x2 = 0.828	x2 = 0.9154
293.15 K	3.72	3.43	3.17	2.96	2.77	2.6	2.45	2.33	2.21
303.15 K	2.95	2.74	2.56	2.4	2.27	2.15	2.03	1.94	1.85
313.15 K	2.39	2.24	2.11	1.99	1.89	1.8	1.71	1.64	1.57
323.15 K	1.98	1.87	1.77	1.68	1.6	1.52	1.46	1.4	1.34

CCCCOCCOCCOCCCC + CCCN
298.15 K, 101 kPa
Conditions	viscosity [mPa·s]
x1 = 0.0095	0.375
x1 = 0.0288	0.417
x1 = 0.0455	0.45
x1 = 0.0845	0.529
x1 = 0.1266	0.622
x1 = 0.1754	0.719
x1 = 0.2172	0.806
x1 = 0.2531	0.87
x1 = 0.266	0.904
x1 = 0.3172	0.994
x1 = 0.3559	1.055
x1 = 0.3977	1.129
x1 = 0.4621	1.24
x1 = 0.516	1.33
x1 = 0.5979	1.489
x1 = 0.6482	1.579
x1 = 0.6986	1.689
x1 = 0.7471	1.774
x1 = 0.7956	1.869
x1 = 0.8618	2.01
x1 = 0.9261	2.093
x1 = 0.9641	2.143

C=C1CCC2CC1C2(C)C (stereo not drawn) + CCCCCC
298.15 K, 101.33 kPa
Conditions	viscosity [mPa·s]
x2 = 0.0421	1.455
x2 = 0.0626	1.392
x2 = 0.2031	1.055
x2 = 0.2799	0.914
x2 = 0.3765	0.772
x2 = 0.4939	0.634
x2 = 0.5597	0.57
x2 = 0.6601	0.488
x2 = 0.7454	0.427
x2 = 0.8217	0.381
x2 = 0.8935	0.344
x2 = 0.9595	0.312

Cc1cccc(N)c1 + c1ccccc1
303.15 K, 101.33 kPa
Conditions	viscosity [mPa·s]
x1 = 0.196	0.695
x1 = 0.405	0.87
x1 = 0.598	1.15
x1 = 0.795	1.54

Oc1cccc2ccccc12 + CCCO
viscosity [mPa·s], 101 kPa
Conditions	x1 = 0.04	x1 = 0.08	x1 = 0.12	x1 = 0.16	x1 = 0.2
293.15 K	2.564	2.904	3.349	3.844	4.423
303.15 K	1.999	2.245	2.528	2.863	3.26
313.15 K	1.592	1.696	1.867	2.114	2.396
323.15 K	1.293	1.403	1.567	1.748	1.954

CCCC[N+](CCCC)(CCCC)CCCC.[Br-] + OCC(O)CO
viscosity [mPa·s], x1 = 0.2
Conditions	296.97 K	298 K	302.02 K	307.2 K	312.13 K	317.31 K	322.23 K
101 kPa	892.4	–	671.4	484.4	331.4	238	195.5
101.33 kPa	–	333.9	–	–	–	–	–

Oc1cccc(O)c1 + CCCO
viscosity [mPa·s], 101 kPa
Conditions	293.15 K	303.15 K	323.15 K
x1 = 0.07	3.605	–	1.675
x1 = 0.28	–	12.05	–

C1=Cc2cccc3cccc1c23 + Cc1ccccc1
viscosity [mPa·s], 101 kPa
Conditions	303.15 K	308.15 K	313.15 K	318.15 K
x1 = 0.1292	0.6888	0.6467	0.608	0.573
x1 = 0.195	0.794	0.74	0.6961	0.6516

CCCCOCCOCCOCCCC + CCOC(=O)OCC
viscosity [mPa·s], 101.3 kPa
Conditions	298.15 K	308.15 K	318.15 K
x1 = 0.0131	0.771	0.675	0.587
x1 = 0.0338	0.806	0.699	0.603
x1 = 0.0756	0.864	0.751	0.638
x1 = 0.1533	0.976	0.842	0.707
x1 = 0.2472	1.118	0.949	0.792
x1 = 0.3392	1.245	1.056	0.871
x1 = 0.4137	1.359	1.14	0.94
x1 = 0.425	1.379	1.153	0.95
x1 = 0.4831	1.457	1.22	1.002
x1 = 0.6085	1.63	1.357	1.105
x1 = 0.7927	1.892	1.556	1.255
x1 = 0.8959	2.018	1.656	1.328
x1 = 0.954	2.116	1.734	1.383
